Assay type in all cases: cell-based
In assay [1] the test system is HCC78 cells. Description: MTT cell viability assay, combinations (Chou-Talalay method). The note with it: Homo sapiens. How it is done: (§1) The combinations comprising the compound of formula (1) were tested using an MTT proliferation assay in a panel of tumor cell lines of different origins. All culture materials were obtained from the sources described in Example 2. In the Chou-Talalay method, which is the standard, universally known methodology to determine drug interactions, the two drugs under study are maintained at a fixed ratio of IC50 single agent (drug 1):IC50 single agent (drug 2) while the concentration of total amount of drugs in the combination is varied and the 20% (IC20), 50% (IC50) and 80% (IC80) of growth inhibition of the combination is determined.
(§2) In the activity assays on cell lines the following terms are used: • IC50: Drug concentration at which 50% growth inhibition is achieved. • TKI IC50: The IC50 of the tyrosine kinase inhibitor as single agent. • Compound (1) IC50: The IC50 of compound (1) as single agent. • CI@IC20: The combination index of the combination consisting of drug 1 and drug 2 at a weight ratio equal to IC50 of drug 1:IC50 of drug 2 wherein said combination is used at a total amount that achieves 20% of growth inhibition. • CI@IC50: The combination index of the combination consisting of drug 1 and drug 2 at a weight ratio equal to IC50 of drug 1:IC50 of drug 2, wherein said combination is used at a total amount that achieves 50% of growth inhibition. • CI@IC80: The combination index of the combination consisting of drug 1 and drug 2 at a weight ratio equal to IC50 of drug 1:IC50 of drug 2, wherein said combination is used at a total amount that achieves 80% of growth inhibition. • Combination TKI IC50: The combination index at a tyrosine kinase inhibitor concentration that corresponds to the IC50 (single agent). • The combination index (CI) concept was introduced by Chou T.C. and Talalay P.(Chou TC, Talalay P. Adv Enzyme Regul 1984;22:27-55). The derived combination index equation for two drugs is (D = dosage or concentration): CI = ((D)1)/((Dx)1) + ((D)2)/((Dx)2) [formula] where (Dx)1 is the concentration of drug 1 "alone" that inhibits growth at a x% (i.e. (D50)1 is the concentration of drug 1 "alone" that inhibits growth at a 50%), (Dx)2 is the concentration of drug 2 "alone" that inhibits growth at a x%, (D)1 and (D)2 refer to the concentration of drug 1 and drug 2, respectively, in the combination, wherein the combination inhibits growth at the same x%. The CI Value quantitatively defines synergism (CI<1) (in particular, CI values of CI<0.7 indicates strong synergism, 0.7<CI<0.85 indicates moderate synergism, 0.85<CI<1 indicates slight synergism), additive effect (CI=1) and antagonism (CI>1). Based on the above equation, a plot of CI values at different effect levels (fa's) can be determined. Entering a series of "dose" ((D1), (D2), ((Dx)1 and (Dx)2) and % of growth inhibition (%x or effect (fa))" into an excel sheet for each drug alone and their combinations, the CI values at different x% (or fa levels) are obtained using the above equation. This plot is also called the Fa-CI plot or the Chou-Talalay plot.
(§3) Cell viability in response to combination treatment was assessed by the Thiazolyl Blue Tetrazolium Bromide (MTT) (Sigma, St Louis, MO) assay. Cells from each cell line were seeded at 2000 to 10000 per well in 96-well plates. […] Twenty-four hours after seeding, cells were exposed to compound (1), commercial drug or combinations thereof for 72 h. In the Chou-Talalay method, which is the standard, universally known methodology to determine drug interactions, the two drugs under study are maintained at a fixed ratio IC50 single agent (drug 1):IC50 single agent (drug 2).
(§4) After treatment, cells were incubated with medium containing MTT (0.75 mg/mL in medium) for 1-2 h at 37°C. Culture medium with MTT was removed and formazan crystals reabsorbed in 100 µL DMSO (Sigma, St. Louis, MO). Cell viability was determined by measuring the absorbance at 492 nm, using a microplate reader (BioWhittaker, Walkersville, MD).
A general note: Formazan colour is commonly taken as a measure of viable cells.

Assay [2] concerns H2228 Cells. The description is as above. The conditions noted are these: Homo sapiens, NCI-H2228. How it is done: as §1, §2, §3, §4
Assay [3] relates to H3122 Cells. Described as above. The note with it: Homo sapiens. The procedure:
as §1, §2, §3, §4

Assay [4] deals with PC9. Description: MTT proliferation assay, single agent. The note with it: Homo sapiens, PC-9, Lung ADC, EGFR ex19, 72 h, mean of several independent experiments. How it is done: The compound of formula (1) was tested using a Thiazolyl Blue Tetrazolium Bromide (MTT) proliferation assay in a panel of tumor cell lines of different origins.
All culture materials were obtained from Biological Industries (Kibbutz Beit Haemek, Israel) or Invitrogen (Paisley, Scotland, United Kingdom). The non-tumor cell lines HF and HACAT were provided by Vall d'Hebrón Hospital and GmbH, respectively. The PC9 naïve cell line was provided by Mayumi Ono and, the H3122, HCC78 and 11-18 by Daniel Costa. The PC9-GR1, PC9-GR2, PC9-GR3, PC9-GR4, PC9-GR5 and PC9-ER cell lines were derived in house by exposing the parental PC9 cell line to increasing concentrations of erlotinib (ER) or gefitinib (GR). The rest of the cell lines in which compound (1) was tested were purchased from ATCC (H23, H1975, H2228, A549, H460, Calu-6, H1650, SK-MES-1, EBC1, SNU1, AGS, N87, PC3, BxPC3, DLD1, HT29, SW48, SCC9,FaDu, AU565, Gingival, Prostate, SU-DHL-1 and A431). All cell lines were maintained in RPMI medium supplemented with 10% FBS, 50 µg/mL penicillin-streptomycin and 2 mM L-Glutamine. All cells were grown in a humidified atmosphere with 5% CO2 at 37°C.
Cell viability in response to single agent treatment was assessed by the Thiazolyl Blue Tetrazolium Bromide (MTT) (Sigma, St Louis, MO) assay. Cells from each cell line were seeded at 2000 to 10000 per well in 96-well plates. […] After treatment, cells were incubated with medium containing MTT (0.75 mg/mL in medium) for 1-2 h at 37°C. Culture medium with MTT was removed and formazan crystals reabsorbed in 100 µL DMSO (Sigma, St. Louis, MO). Cell viability was determined by measuring the absorbance at 492 nm, using a microplate reader (BioWhittaker, Walkersville, MD).
The IC50s shown are the mean of several independent experiments. Standard errors are also listed Table 2. SCC means squamous cell carcinoma, ADC means adenocarcinoma, GBM means glioblastoma.

The text below walks through data of EP3120851A1, “4-AMINO-6-(2,6-DICHLOROPHENYL)-8-METHYL-2-(PHENYLAMINO)-PYRIDO[2,3-D]PYRIMIDIN-7(8H)-ONE FOR TREATMENT OF SOLID CANCERS” (Pangaea Biotech S.L., priority 2015, dated 2017).

By IC50 is commonly meant the midpoint of a concentration-inhibition curve.

Structures are written as SMILES. Where two headings read alike, the source gives them in different places.

For the molecule `Cn1c(=O)c(-c2c(Cl)cccc2Cl)cc2c(N)nc(Nc3ccccc3)nc21` [Compound (1), 4-amino-6-(2,6-dichlorophenyl)-8-methyl-2-(phenylamino)-pyrido[2,3-d]pyrimidin-7(8H)-one], the IC50 in assay [1] (HCC78, 72 h, HCC78 cells, compound (1) as single agent, 72 h, read-out: Compound (1) IC50) came to 800 nM; in assay [1] (HCC78, HCC78 cells, compound (1) in combination with Crizotinib, read-out: Combination Compound (1) IC50), 430 nM; in assay [1] (HCC78, HCC78 cells, compound (1) in combination with Foretinib, read-out: Combination Compound (1) IC50), 210 nM; in assay [2] (H2228 cells, compound (1) as single agent, 72 h, read-out: Compound (1) IC50), 809 nM; in assay [2] (read-out: Combination Compound (1) IC50), 410 nM; in assay [3] (NCI-H3122, 72 h, H3122 cells, compound (1) as single agent, 72 h, read-out: Compound (1) IC50), 1300 nM. Moreover, the IC50 is 240 nM in assay [3] (NCI-H3122, H3122 cells, compound (1) in combination with Alectinib, read-out: Combination Compound (1) IC50); 500 nM in assay [3] (NCI-H3122, H3122 cells, compound (1) in combination with Crizotinib, read-out: Combination Compound (1) IC50); 2850 nM in assay [4].
